{
  "source": "paper PMC12658903",
  "about": "(RSC Medicinal Chemistry, 2025)",
  "system": "SARS-CoV-2 (D614G)",
  "assay_type": "cell-based",
  "conditions": "10 µM",
  "data": [
    {"compound": "CN(C)C(=O)COC(=O)Cc1ccc(OC(=O)c2ccc(NC(=N)N)cc2)cc1", "note": "[Camostat, camostat]", "values": [
      {"measurement": "Percentage of infection inhibition", "value": 85, "unit": "%"}
    ]}
  ]
}
